Assay results: article PMC7997635 (Journal of medicinal chemistry, 2021)
Values after ≈ are worked out from the molar mass of the structure shown. Each block holds one compound with its values, some of them ahead of it.

How the values were obtained:
[1] = system: conversion of hematin (Fe(III)PPIX) to β-hematin; format: biochemical; details: pH 4.8 acetate, NP-40, 37 °C, 5 h; for IC50: read-out: IC50 for inhibition of βH formation
P. falciparum NF54-luc = experiment: Bioluminescence relative rate of kill; format: cell-based, Plasmodium falciparum; details: 6 h exposure, 30× to […] EC50, compared with benchmarks
[2] = Solubility in NP-40/DMSO buffer of the heme biomineralization assay; format: physicochemical
P. falciparum [3] = details: previously characterized with the standard PRR assay ref 34; cited from earlier work
[4] = system: Hz formation in NF54 parasites; experiment: Cellular heme fractionation assay; format: cell-based; details: Plasmodium falciparum, NF54, 32 h, read-out: EC50 (heme), drug concentration giving 50% response of 'free' heme Fe
PfNF54 parasites = experiment: Parasite survival concentration response; format: cell-based; details: Plasmodium falciparum, read-out: EC50 (survival), parasite survival
P. falciparum 3D7 [5] = experiment: SYBR Green parasite growth inhibition assay, 72 h; format: cell-based; details: Plasmodium falciparum, 3D7, 72 h, read-out: P. falciparum EC50 Pf3D7, 72 h SYBR Green assay, ABS parasites; mean ± std dev (n) or individual replicates
[6] = Kinetic solubility in pH 2.0 and pH 6.5 buffers; format: physicochemical
[7] = system: P. berghei liver stage (Pb-Luc sporozoites in HepG2-A16-CD81EGFP cells); experiment: P. berghei liver stage assay; format: cell-based, Plasmodium berghei; details: for EC50: read-out: Pb liver stage EC50, two independent replicates
[8] = HepG2tox assay run with the liver stage assay; format: cell-based, human; details: human, HepG2 cells, HepG2 CC50 (life cycle profiling), two independent replicates
HepG2 = experiment: HepG2tox assay run with the liver stage assay; format: cell-based, human; details: read-out: HepG2 CC50 (life cycle profiling); two independent replicates
P. falciparum [9] = experiment: PRR drug washout kill rate assay; format: cell-based, Plasmodium falciparum; details: 10× EC50, 24 or 48 h
[10] = HepG2 in vitro cytotoxicity; format: cell-based; details: human, HepG2 cells
P. falciparum 3D7 [11] = experiment: Two-color flow cytometry kill rate assay; format: cell-based, Plasmodium falciparum; details: 10× EC50, 24 or 48 h
P. falciparum Dd2 = experiment: SYBR Green parasite growth inhibition assay, 72 h; format: cell-based, Plasmodium falciparum
male stage V gametocytes = experiment: Dual gamete formation assay; format: cell-based; details: Plasmodium falciparum, read-out: DGFA male gametocytes inhibition
P. falciparum 3D7 [12] = experiment: 48 h 3H-hypoxanthine incorporation assay; format: cell-based; details: Plasmodium falciparum, 3D7, 48 h, read-out: EC50, 48 h hypoxanthine assay
[13] = phosphate buffered saline pH 6.5, pH 6.5

Structure (SMILES): COc1ccc(Br)cc1CN(C)C(c1ccccc1)c1nnnn1-c1ccccc1C (racemic) [Compound 3, N-(5-bromo-2-methoxybenzyl)-N-methyl-1-phenyl-1-(1-(o-tolyl)-1H-tetrazol-5-yl)methenamine]
inhibition of βH formation (in words) [1]: nearly inactive
rate of kill profile in BRRoK assay (P. falciparum NF54-luc): fast kill mechanism
solubility [2]: ≥ 2000 µM

IC50 [1]: ≤ 100 µM
Structure (SMILES): O[C@@H](c1cc(C(F)(F)F)nc2c(C(F)(F)F)cccc12)[C@H]1CCCCN1 (racemic) [MFQ, mefloquine, reference compound]

Structure (SMILES): C[C@@H]1CC[C@H]2[C@@H](C)C(=O)O[C@@H]3O[C@@]4(C)CC[C@@H]1[C@]32OO4 [ART, artemisinin]
rate of kill class of benchmark compound (P. falciparum [3]): fast-kill

Structure (SMILES): O=C1C(O)=C([C@H]2CC[C@H](c3ccc(Cl)cc3)CC2)C(=O)c2ccccc21 [ATQ, atovaquone]
rate of kill class of benchmark compound (P. falciparum [3]): slow-kill

Structure (SMILES): CCN(CC)CCCC(C)Nc1ccnc2cc(Cl)ccc12 (stereo not drawn) [CQ, chloroquine]
EC50 [4]: 0.058 µM
rate of kill class of benchmark compound (P. falciparum [3]): fast-kill
EC50 (PfNF54 parasites): 0.015 µM

Structure (SMILES): CCC(C(=O)Nc1cccc(Cl)c1)N1C(=O)C(C)N=C(c2ccccc2)c2ccccc21 (stereo not drawn) [Compound 1, N-(3-Chlorophenyl)-2-(3-methyl-2-oxo-5-phenyl-2,3-dihydro-1H-benzo[e][1,4]diazepin-1-yl)butanamide]
rate of kill profile in BRRoK assay (P. falciparum NF54-luc): slow kill kinetics

Structure (SMILES): CC(=O)c1ccc(NC(=O)c2ccc(NC(=O)C3COc4ccccc4O3)cc2)cc1 (stereo not drawn) [Compound 2, N-(4-((4-Acetylphenyl)carbamoyl)phenyl)-2,3-dihydrobenzo[b][1,4]dioxine-2-carboxamide]
rate of kill profile in BRRoK assay (P. falciparum NF54-luc): slow kill kinetics

EC50 (P. falciparum 3D7 [5]): ~1 µM
Structure (SMILES): COc1ccc(C(F)(F)F)cc1CN(C)C(c1cccnc1)c1nnnn1-c1ccccc1C (stereo not drawn) [Compound 6, N-(2-methoxy-5-(trifluoromethyl)benzyl)-N-methyl-1-(pyridin-3-yl)-1-(1-(o-tolyl)-1H-tetrazol-5-yl)methenamine]

solubility kinetic ([6]; pH 2.0 buffer, pH 2): 12.5 to 25 µg/mL (≈ 25.3 to 50.6 µM)
solubility kinetic [6, 13]: 1.6 to 3.1 µg/mL (≈ 3.24 to 6.27 µM)
Structure (SMILES): COc1ccc(C(F)(F)F)cc1CN(C1CC1)C(c1cccnc1)c1nnnn1-c1ccccc1C (stereo not drawn) [Compound 7, N-(2-methoxy-5-(trifluoromethyl)benzyl)-N-(pyridin-3-yl(1-(o-tolyl)-1H-tetrazol-5-yl)methyl)cyclopropanamine]

Structure (SMILES): Cc1ccccc1-n1nnnc1C(c1cccnc1)N(Cc1cccc(C(F)(F)F)c1)C1CC1 (stereo not drawn) [Compound 9, N-(Pyridin-3-yl(1-(o-tolyl)-1H-tetrazol-5-yl)methyl)-N-(3-(trifluoromethyl)benzyl) cyclopropanamine]
inhibition of βH formation (in words) [1]: inhibited βH formation with the same potency as MFQ
EC50 [7]: 12 µM
solubility [2]: ≥ 2000 µM
CC50 [8]: 19 µM
CC50 (HepG2): > 17 µM
solubility kinetic ([6]; pH 2.0 buffer, pH 2): 12 to 23 µg/mL (≈ 25.8 to 49.5 µM)
solubility kinetic [6, 13]: 1.5 to 2.9 µg/mL (≈ 3.23 to 6.24 µM)

Structure (SMILES): Cc1ccccc1-n1nnnc1C(c1cncnc1)N(Cc1cccc(C(F)(F)F)c1)C1CC1 (stereo not drawn) [Compound 10, N-(Pyrimidin-5-yl(1-(o-tolyl)-1H-tetrazol-5-yl)methyl)-N-(3-(trifluoromethyl)benzyl)cyclopropanamine]
kill kinetics in PRR washout assay (P. falciparum [9]): kill kinetics similar to CQ, though slower than ART
inhibition of βH formation (in words) [1]: weaker inhibition
EC50 [4]: 1.04 µM
EC50 (P. falciparum 3D7 [5]): 0.32 µM
rate of kill profile in BRRoK assay (P. falciparum NF54-luc): fast kill kinetics
CC50 at 72 h [10]: > 30 µM
solubility [2]: ≥ 2000 µM
kill kinetics in two-color FACS assay (P. falciparum 3D7 [11]): kill kinetics similar to CQ, though slower than ART
solubility kinetic ([6]; pH 2.0 buffer, pH 2): 1.5 to 2.9 µg/mL (≈ 3.22 to 6.23 µM)
solubility kinetic [6, 13]: 1.5 to 2.9 µg/mL (≈ 3.22 to 6.23 µM)

Structure (SMILES): CCCN(C(c1cncnc1)c1nnnn1-c1ccccc1C)C1(c2cccc(C(F)(F)F)c2)CC1 (stereo not drawn) [Compound 20, N-Propyl-N-(pyrimidin-5-yl(1-(o-tolyl)-1H-tetrazol-5-yl)methyl)-1-(3-(trifluoromethyl)phenyl)cyclopropan-1-amine]
selectivity ratio at 72 h [10]: 40 to 50

EC50 (P. falciparum 3D7 [5]): ~0.3 µM
Structure (SMILES): CCCN(C(c1cccnc1)c1nnnn1-c1ccccc1C)C1(c2cccc(C(F)(F)F)c2)CC1 (stereo not drawn) [Compound 21, N-Propyl-N-(pyridin-3-yl(1-(o-tolyl)-1H-tetrazol-5-yl)methyl)-1-(3-(trifluoromethyl)phenyl)cyclopropan-1-amine]
selectivity ratio at 72 h [10]: 40 to 50

solubility kinetic [6, 13]: 6.3 to 12.5 µg/mL (≈ 13.9 to 27.6 µM)
Structure (SMILES): Cc1ccccc1N(C)C(=O)C(c1cccnc1)N(Cc1cccc(C(F)(F)F)c1)C1CC1 (stereo not drawn) [Compound 22, 2-(Cyclopropyl(3-(trifluoromethyl)benzyl)amino)-N-methyl-2-(pyridin-3-yl)-N-(o-tolyl)acetamide]

Structure (SMILES): Cc1ccccc1N(C)C(=O)C(c1cncnc1)N(Cc1cccc(C(F)(F)F)c1)C1CC1 (stereo not drawn) [Compound 23, 2-(Cyclopropyl(3-(trifluoromethyl)benzyl)amino)-N-methyl-2-(pyrimidin-5-yl)-N-(o-tolyl)acetamide]
rate of kill profile in BRRoK assay (P. falciparum NF54-luc): fast kill kinetics
solubility kinetic ([6]; pH 2.0 buffer, pH 2): 11 to 23 µg/mL (≈ 24.2 to 50.6 µM)

Structure (SMILES): Cc1ccccc1N(C)C(=O)C(c1cccnc1)N(Cc1cccc(OC(F)(F)F)c1)C1CC1 (stereo not drawn) [Compound 26, 2-(Cyclopropyl(3-(trifluoromethoxy)benzyl)amino)-N-methyl-2-(pyridin-3-yl)-N-(o-tolyl)acetamide]
Fold Diff in EC50, Dd2 relative to 3D7 (P. falciparum Dd2): 3–5 fold

Structure (SMILES): Cc1ccccc1N(C)C(=O)C(c1cncnc1)N(Cc1cccc(OC(F)(F)F)c1)C1CC1 (stereo not drawn) [Compound 27, 2-(Cyclopropyl(3-(trifluoromethoxy)benzyl)amino)-N-methyl-2-(pyrimidin-5-yl)-N-(o-tolyl)acetamide]
Fold Diff in EC50, Dd2 relative to 3D7 (P. falciparum Dd2): 1.4 – 3.0 fold

Structure (SMILES): Cc1ccccc1N(C)C(=O)C(c1cccnc1)N(Cc1cc(C(F)(F)F)ccc1F)C1CC1 (stereo not drawn) [Compound 32, 2-(Cyclopropyl(2-fluoro-5-(trifluoromethyl)benzyl)amino)-N-methyl-2-(pyridin-3-yl)-N-(o-tolyl)acetamide]
inhibition at 25 µM (male stage V gametocytes): ~60%
Pb liver stage EC50 relative to P. falciparum blood stage EC50 ([7]; fold higher): 20 to 30 fold
EC50 [7]: 16 µM
CC50 [8]: 24 µM
solubility kinetic [6, 13]: 1.5 to 2.9 µg/mL (≈ 3.18 to 6.15 µM)

solubility kinetic [6, 13]: 25 to 50 µg/mL (≈ 59.9 to 120 µM)
Structure (SMILES): O=C(C(c1cccnc1)N(Cc1cccc(C(F)(F)F)c1)C1CC1)N1CCCCC1 (stereo not drawn) [Compound 34, 2-(Cyclopropyl(3-(trifluoromethyl)benzyl)amino)-1-(piperidin-1-yl)-2-(pyridin-3-yl)ethan-1-one]

Structure (SMILES): Cc1cc(Nc2ccc(S(F)(F)(F)(F)F)cc2)n2nc(C(C)(F)F)nc2n1 [DSM265]
rate of kill class of benchmark compound (P. falciparum [3]): slow-kill

EC50 [4]: > 0.1 µM
EC50 (P. falciparum 3D7 [12]): 0.094 µM
Structure (SMILES): CCc1nc(N)nc(N)c1-c1ccc(Cl)cc1 [PYR, pyrimethamine]
EC50 (PfNF54 parasites): 0.033 µM

IC50 [1]: ≤ 100 µM
Structure (SMILES): CCN(CC)Cc1cc(Nc2ccnc3cc(Cl)ccc23)ccc1O [amodiaquine, reference compound]

IC50 [1]: ≤ 100 µM
Structure (SMILES): COc1ccc2nc3cc(Cl)ccc3c(Nc3cc(CN4CCCC4)c(O)c(CN4CCCC4)c3)c2n1 [pyronaridine, reference compound]
